Key:
[1] = target: T1, nitrile hydratase of Rhodococcus erythropolis NCIMB 11540 (Rhodococcus erythropolis, UniProt P13448+P13449); assay: Hydrolysis using the recombinant enzyme (crude lysate of E. coli clone 7.3); format: biochemical; details: substrate approximately 10 mM, 5% DMSO, 30° C., pH 7; for Activity of the nitrile hydratase: relative to 2-hydroxy-4-phenylbutyronitrile (100%)
T1 construct: made in house; host or cells: E. coli B BL21 (plasmid pMS470Nhase7.3 or pMSNhasetactac7.3), crude lysate
T1 sequence (P13448 1-207): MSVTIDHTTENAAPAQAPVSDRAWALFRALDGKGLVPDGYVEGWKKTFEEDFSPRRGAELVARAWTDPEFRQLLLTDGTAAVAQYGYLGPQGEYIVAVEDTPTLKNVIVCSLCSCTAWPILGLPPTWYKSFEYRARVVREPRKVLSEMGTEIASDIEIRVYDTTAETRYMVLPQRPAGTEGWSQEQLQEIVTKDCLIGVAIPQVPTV
T1 sequence (P13449 1-212): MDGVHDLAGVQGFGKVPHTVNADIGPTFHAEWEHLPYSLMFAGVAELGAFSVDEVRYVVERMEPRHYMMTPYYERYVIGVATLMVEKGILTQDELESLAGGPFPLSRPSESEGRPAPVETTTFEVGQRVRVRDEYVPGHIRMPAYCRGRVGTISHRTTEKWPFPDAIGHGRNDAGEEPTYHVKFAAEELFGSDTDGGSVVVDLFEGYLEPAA
Method: In these reactions, cloned nitrile hydratase of Rhodococcus erythropolis NCIMB 11540 was used as crude lysate of E. coli clone 7.3 (produced according to Example 9).
50 μl of crude lysate were diluted with 425 μl of buffer (K/Na—PO4 buffer, pH 7, 50 mM) and admixed with 25 μl of an approximately 220 mM substrate solution in DMSO (5 mg of protein/ml substrate concentration approximately 10 mM, 5% DMSO). The reaction was carried out in the Thermomixer at 30° C. and 1000 rpm. After 0, 2, 4, 6, 8, 10, 15, 20, 30, 60 and 120 minutes, in each case one Eppendorf was admixed with 0.5 ml of 1N HCl. After centrifugation (5 min, 13 000 rpm) and corresponding dilution, the concentrations of cyanohydrin and hydroxyamide were determined by HPLC. The activity of the nitrile hydratase was determined from the velocity of formation of hydroxyamide (gradient in the initial range). The standard substrate (100% activity) used was 2-hydroxy-4-phenylbutyronitile. The activity in the hydrolysis of the other substrates was compared with the activity on 2-hydroxy-4-phenylbutyronitrile (Tab. 5).

[2] = system: Rhodococcus erythropolis NCIMB 11540 cells; assay: Enzymatic hydrolysis at different substrate concentrations, Experiment 4.1; format: cell-based; details: 5% DMSO, 30° C.
Method: In experiment 4.1, the reaction was carried out on an analytical scale (reaction volume 1 ml) using 3 substrate concentrations (2.2 g/l, 6.6 g/l, 13.2 g/l).
The biocatalyst was produced according to Example 1, Variant II, 2 l of fermentation medium, harvest after 20 hours (OD546 6.1). The cells from 8 times 10 ml of fermentation solution were centrifuged off in culture tubes. The resultant cell mass was washed once in each case with 2 ml K/Na-phosphate buffer (pH 6.5, 50 mM). The contents of 2 tubes were lyophilized for determining the dry weight. • Weight: 1. 37 mg of lyophilized cells/10 ml fermentation solution • 2. 30 mg
The contents of the remaining 6 tubes were resuspended in 950 μl of buffer (OD approximately 40) and transferred to Eppendorfs. To each of these cell suspensions were added 50 μl of variously concentrated substrate solutions (3 concentrations, parallel batches, 5% DMSO as cosolvent). The Eppendorfs were shaken on the Thermomixer at 30° C. and 1000 rpm. For monitoring the conversion rate, in each case 200 μl were withdrawn and admixed with 200 μl of 1N HCl. After centrifugation (5 min, 13 000 rpm) and dilution, the conversion rates were determined by HPLC.
Following concentrations of (R)-2-chloromandelonitrile were used: • a. Substrate solution: 11 mg of (R)-2-chloromandelonitrile in 250 μl of DMSO (approximately 260 mM) • Substrate concentration in the batch: 2.2 g/l (13.1 mM) • b. Substrate solution: 33 mg of (R)-2-chloromandelonitrile in 250 μl of DMSO (approximately […]) • Substrate concentration in the batch: substrate concentration: 6.6 g/l (39.4 mM) • c. Substrate solution: 66 mg of (R)-2-chloromandelonitrile in 250 μl of DMSO (approximately 1580 mM) • Substrate concentration in the batch: 13.2 g/l (78.8 mM)

## N#CC(O)c1ccccc1Cl (stereo not shown)
[1]
  Activity of the nitrile hydratase: 100%

## Cc1ccc(C(O)C#N)cc1 (stereo not shown)
[1]
  Activity of the nitrile hydratase: 60%

## N#CC(O)CCc1ccccc1 (stereo not shown) [2-hydroxy-4-phenylbutyronitrile]
[1]; E. coli clone 7.3
  activity of the nitrile hydratase in the crude lysate: approximately 0.3 μmol·mg^−1·min^−1

## O=C(O)[C@H](O)c1ccccc1Cl [(R)-2-chloromandelic acid]
[2]; batch a: 2.2 g/l (13.1 mM) (R)-2-chloromandelonitrile, 10 min
  formation of (R)-2-chloromandelic acid: 77%
[2]; batch a: 2.2 g/l (13.1 mM), 20 min
  formation of (R)-2-chloromandelic acid: 86%
[2]; batch a: 2.2 g/l (13.1 mM), 30 min
  formation of (R)-2-chloromandelic acid: 92%
[2]; batch a: 2.2 g/l (13.1 mM), 40 min
  formation of (R)-2-chloromandelic acid: 94%
[2]; batch a: 2.2 g/l (13.1 mM), 50 min
  formation of (R)-2-chloromandelic acid: 96%
[2]; batch b: 6.6 g/l (39.4 mM), 10 min
  formation of (R)-2-chloromandelic acid: 45%
[2]; batch b: 6.6 g/l (39.4 mM), 20 min
  formation of (R)-2-chloromandelic acid: 70%
[2]; batch b: 6.6 g/l (39.4 mM), 30 min
  formation of (R)-2-chloromandelic acid: 82%
[2]; batch b: 6.6 g/l (39.4 mM), 40 min
  formation of (R)-2-chloromandelic acid: 89%
[2]; batch b: 6.6 g/l (39.4 mM), 50 min
  formation of (R)-2-chloromandelic acid: 95%
[2]; batch c: 13.2 g/l (78.8 mM), 10 min
  formation of (R)-2-chloromandelic acid: 58%
[2]; batch c: 13.2 g/l (78.8 mM), 20 min
  formation of (R)-2-chloromandelic acid: 85%
[2]; batch c: 13.2 g/l (78.8 mM), 30 min
  formation of (R)-2-chloromandelic acid: 96%
[2]; batch c: 13.2 g/l (78.8 mM), 40 min
  formation of (R)-2-chloromandelic acid: 98%
[2]; batch c: 13.2 g/l (78.8 mM), 50 min
  formation of (R)-2-chloromandelic acid: 100%

## N#CC(O)CCc1ccccc1 (stereo not shown) [drawing 3]
[1]
  Activity of the nitrile hydratase: 100%

From patent US7514245B2, “Method for producing chiral α-hydroxycarboxylic acids by enzymatic hydrolysis of chiral cyanohydrins” (DSM Fine Chemicals Austria NFG GmbH & Co. KG, priority 2003, dated 2009)
